Source: patent US20160051665A1, “INDUCTION OF IMMUNE RESPONSE” (priority 2010, published 2016)

Key:
oligosaccharide addition = conditions: cited from earlier work
glucosidase I = molecular target: T1, glucosidase I (Homo sapiens, UniProt Q13724); conditions: cited from earlier work
T1 sequence (Q13724 1-837): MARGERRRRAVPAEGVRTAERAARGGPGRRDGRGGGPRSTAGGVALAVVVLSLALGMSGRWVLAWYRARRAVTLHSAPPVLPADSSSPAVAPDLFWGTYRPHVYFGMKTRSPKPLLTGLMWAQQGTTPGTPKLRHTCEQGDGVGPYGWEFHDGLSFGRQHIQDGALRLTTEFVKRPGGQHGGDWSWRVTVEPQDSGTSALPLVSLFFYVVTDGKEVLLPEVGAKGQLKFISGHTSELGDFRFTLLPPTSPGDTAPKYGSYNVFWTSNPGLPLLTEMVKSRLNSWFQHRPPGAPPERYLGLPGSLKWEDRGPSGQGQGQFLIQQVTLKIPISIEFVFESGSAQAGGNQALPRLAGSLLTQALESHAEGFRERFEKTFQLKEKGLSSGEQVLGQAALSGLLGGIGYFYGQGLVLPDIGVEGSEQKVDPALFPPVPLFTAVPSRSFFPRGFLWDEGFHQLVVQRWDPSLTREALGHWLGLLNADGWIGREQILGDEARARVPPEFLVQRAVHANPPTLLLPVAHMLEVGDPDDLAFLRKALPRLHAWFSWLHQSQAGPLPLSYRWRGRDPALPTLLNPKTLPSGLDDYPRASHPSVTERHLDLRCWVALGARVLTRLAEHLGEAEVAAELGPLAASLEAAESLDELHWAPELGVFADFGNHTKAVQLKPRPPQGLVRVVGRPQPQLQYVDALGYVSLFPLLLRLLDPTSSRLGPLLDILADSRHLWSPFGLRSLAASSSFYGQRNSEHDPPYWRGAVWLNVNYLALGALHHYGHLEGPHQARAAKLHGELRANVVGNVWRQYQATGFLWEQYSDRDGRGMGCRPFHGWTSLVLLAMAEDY

[1] = test system: woodchuck hepatitis virus (WHV); conditions: previous study (ref. 11); cited from earlier work
[2] = test system: HLA-A2 expressing T2 target cells; experiment: interferon-γ ELISpot: peptide-primed CTLs against peptide-pulsed T2 cells; assay type: cell-based, human; conditions: PBMCs of healthy HLA-A2 donors stimulated in vitro with peptide; FIG. 2A
Procedure: Heparinized blood from healthy HLA-A2 donors was purchased from Research Blood Components, LLC, (Brighton, Mass.). Peripheral blood mononuclear cells were purified and cultured as described (13, 21). After initial stimulation with synthetic peptide, T cells were re-stimulated with CD4/CD8 T cell depleted autologous monocytes pulsed with synthetic peptide at 10 μg/ml for 5 days. IL-2 treatment and in vitro re-stimulation were repeated thrice prior to use of in vitro expanded T cells in ELISpot assays.
In vitro expanded CTLs were used as effectors in ELISpot assays to assess antigen stimulated interferon-γ release according to the manufacturer's instructions (BD-Pharmingen, San Jose, Calif.). Target cells were HepG2 human hepatoma cells (HBV negative; American Type Culture Collection) or HBV-containing HepG2.2.15 cells (22). […]
Peptides presented on the surface of a cell in the context of the MHC class I complex should be recognized with high sensitivity upon incubation with cognate peptide-primed CTLs, with specific killing of the target cells. […] Target cell recognition was quantified by interferon-γ ELISpot assay.
The ability of in vitro generated CTLs to recognize and secrete interferon-γ was evaluated by ELISpot assay. […] The P value was calculated from a Student's t-Test analysis of experimental results.

Compound | prevention of oligosaccharide addition (oligosaccharide addition) | elicitation of specific CTLs that recognize T2 target cells [2] | further results
O[C@H]1[C@H](O)[C@@H](O)CN2CC[C@H](O)[C@H]12 [Castanospermine] | does not | – | potency as inhibitor of glucosidase I relative to deoxynojirimycin (glucosidase I): more potent inhibitors of glucosidase I than deoxynojirimycin
CCCCCCCCCN1C[C@H](O)[C@@H](O)[C@H](O)[C@H]1CO [N-nonyl deoxynojirimycin] | – | – | antiviral activity in woodchucks [1]: antiviral activity had previously been observed
OC[C@H]1NC[C@H](O)[C@@H](O)[C@@H]1O [deoxynojirimycin] | prevents oligosaccharide addition some fraction of the time | – | –
KPSDGDCTC [D-peptide, de-N-glycosylated 'D' substituted HBs peptide] | – | effective elicitors of specific CTLs | –
KPSDGNCTC [N-peptide] | – | effective elicitors of specific CTLs | –
